{"source": "patent US12295937B2", "about": "“Psychoactive medicines and their use for treating psychiatric and neurological conditions and disorders” (Transcend Therapeutics, Inc., priority 2021, dated 2025)", "key": {"5HT2A receptor": {"molecular_target": "T1, 5HT2A receptor (Homo sapiens, UniProt P28223)", "T1 construct": "host or cells: PathHunter cell lines", "T1 sequence (P28223 whole entry)": "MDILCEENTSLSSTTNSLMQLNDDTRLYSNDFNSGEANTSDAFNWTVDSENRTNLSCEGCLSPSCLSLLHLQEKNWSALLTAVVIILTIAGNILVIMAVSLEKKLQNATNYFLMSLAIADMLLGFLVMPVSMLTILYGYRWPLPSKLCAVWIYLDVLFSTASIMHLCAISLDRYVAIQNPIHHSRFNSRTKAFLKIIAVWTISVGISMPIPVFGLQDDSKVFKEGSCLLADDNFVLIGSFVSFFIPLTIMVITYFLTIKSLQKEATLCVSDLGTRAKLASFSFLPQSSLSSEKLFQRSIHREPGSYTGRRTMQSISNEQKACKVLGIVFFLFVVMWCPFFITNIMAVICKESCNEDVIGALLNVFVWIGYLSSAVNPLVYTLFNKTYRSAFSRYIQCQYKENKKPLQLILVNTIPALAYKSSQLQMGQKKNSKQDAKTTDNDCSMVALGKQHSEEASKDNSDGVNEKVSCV", "assay": "GPCRmax screen, agonist mode, 5HT2A", "format": "cell-based", "conditions": "1 or 10 mM"}, "5HT2C receptor [1]": {"molecular_target": "T2, 5HT2C receptor (Homo sapiens, UniProt P28335)", "T2 construct": "host or cells: PathHunter cell lines", "T2 sequence (P28335 33-458)": "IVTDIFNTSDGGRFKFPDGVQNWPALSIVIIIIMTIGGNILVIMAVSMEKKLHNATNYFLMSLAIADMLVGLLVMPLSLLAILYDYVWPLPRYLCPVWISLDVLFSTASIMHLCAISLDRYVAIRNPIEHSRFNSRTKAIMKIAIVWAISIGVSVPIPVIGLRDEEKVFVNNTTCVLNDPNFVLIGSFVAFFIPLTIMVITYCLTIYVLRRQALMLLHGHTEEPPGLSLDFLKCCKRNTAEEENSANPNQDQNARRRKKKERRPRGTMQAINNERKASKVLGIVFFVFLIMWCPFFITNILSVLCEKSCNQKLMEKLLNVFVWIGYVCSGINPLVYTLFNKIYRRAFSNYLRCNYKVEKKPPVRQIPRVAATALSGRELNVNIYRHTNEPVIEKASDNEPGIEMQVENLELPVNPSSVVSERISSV", "assay": "GPCRmax screen, agonist mode, 5HT2C", "format": "cell-based", "conditions": "1 or 10 mM"}, "5HT2C receptor [2]": {"molecular_target": "T2, 5HT2C receptor", "assay": "GPCRmax screen, antagonist mode, 5HT2C", "format": "cell-based", "conditions": "1 or 10 mM"}, "[3]": {"molecular_target": "T3, Human serotonin 5HT2B receptor (Homo sapiens, UniProt P41595)", "T3 sequence (P41595 whole entry)": "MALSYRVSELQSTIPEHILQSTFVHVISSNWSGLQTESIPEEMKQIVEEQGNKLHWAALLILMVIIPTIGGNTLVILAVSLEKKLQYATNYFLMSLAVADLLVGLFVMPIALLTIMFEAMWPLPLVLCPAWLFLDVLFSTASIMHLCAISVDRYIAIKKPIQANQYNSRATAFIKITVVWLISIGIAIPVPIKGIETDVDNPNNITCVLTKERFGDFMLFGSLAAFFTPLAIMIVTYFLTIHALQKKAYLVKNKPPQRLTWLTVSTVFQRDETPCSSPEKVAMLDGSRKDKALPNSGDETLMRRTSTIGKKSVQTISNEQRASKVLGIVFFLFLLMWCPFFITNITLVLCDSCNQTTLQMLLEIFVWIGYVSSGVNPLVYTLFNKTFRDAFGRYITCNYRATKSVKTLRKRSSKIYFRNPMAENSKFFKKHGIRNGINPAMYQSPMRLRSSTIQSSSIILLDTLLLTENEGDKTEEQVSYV", "assay": "Competitive radioligand binding to 5HT2B receptor membranes", "experimental": "Human serotonin 5HT2B receptor membrane preparations were divided into aliquots. On the day of the assay, membranes were diluted at 1:200 in incubation buffer. […] To each well was added 150 μL membrane preparation, 50 μL test compound, non-specific compound, or buffer alone, as well as 50 μL radioligand. The plate was incubated at 35° C. for 90 minutes with gentle agitation. […] For each concentration of drug, non-specific binding was subtracted from total binding to give specific binding. […] Ki was subsequently calculated using the ChengPrusoff equation."}, "[4]": {"tested_on": "gene expression in amygdala, frontal cortex, hippocampus", "assay": "RNA-sequencing of rat brain areas after a single dose", "format": "in vivo"}, "[5]": {"tested_on": "myelin basic protein (MBP)", "assay": "Myelin basic protein immunohistochemistry in amygdala", "format": "in vivo, rat", "conditions": "10 mg/kg IP, 24 h", "experimental": "Immunohistochemistry: The in-life portion of the study was conducted at WuXi Apptec (Cranbury, NJ). Sectioning and staining of brains took place at Neuroscience Associates (NSA, Knoxville, TN). […] Brains were post-fixed in PFA before shipment to NSA for processing and staining. Hemisected brains were mounted, sectioned and stained using standard protocols with myelin-basic protein primary antibody (MBP SMI-99, 1:5000, Biolegend, San Diego, CA) and anti-mouse biotinylated secondary antibody (BA-2001, Vector Laboratories, Newark, CA). Slides were imaged using a Huron Digital Pathology TissueScope LE120 whole slide scanning system. 20× objective was used with a 0.4 μm/pixel resolution."}, "[6]": {"conditions": "cited from earlier work"}, "[7]": {"conditions": "7.5 mg/kg 30 minutes prior to extinction training (Young 2015); cited from earlier work"}, "[8]": {"molecular_target": "T3, Human serotonin 5HT2B receptor", "conditions": "read-out: Ki (reported); reported values; cited from earlier work"}, "[9]": {"conditions": "depending on the animal model and dosing conditions; cited from earlier work"}, "[10]": {"conditions": "13 of 77 deaths, meta-analysis; cited from earlier work"}, "SERT [11]": {"molecular_target": "T4, SERT (Rattus norvegicus, UniProt P31652)", "T4 sequence (P31652 whole entry, the tested form may be a part)": "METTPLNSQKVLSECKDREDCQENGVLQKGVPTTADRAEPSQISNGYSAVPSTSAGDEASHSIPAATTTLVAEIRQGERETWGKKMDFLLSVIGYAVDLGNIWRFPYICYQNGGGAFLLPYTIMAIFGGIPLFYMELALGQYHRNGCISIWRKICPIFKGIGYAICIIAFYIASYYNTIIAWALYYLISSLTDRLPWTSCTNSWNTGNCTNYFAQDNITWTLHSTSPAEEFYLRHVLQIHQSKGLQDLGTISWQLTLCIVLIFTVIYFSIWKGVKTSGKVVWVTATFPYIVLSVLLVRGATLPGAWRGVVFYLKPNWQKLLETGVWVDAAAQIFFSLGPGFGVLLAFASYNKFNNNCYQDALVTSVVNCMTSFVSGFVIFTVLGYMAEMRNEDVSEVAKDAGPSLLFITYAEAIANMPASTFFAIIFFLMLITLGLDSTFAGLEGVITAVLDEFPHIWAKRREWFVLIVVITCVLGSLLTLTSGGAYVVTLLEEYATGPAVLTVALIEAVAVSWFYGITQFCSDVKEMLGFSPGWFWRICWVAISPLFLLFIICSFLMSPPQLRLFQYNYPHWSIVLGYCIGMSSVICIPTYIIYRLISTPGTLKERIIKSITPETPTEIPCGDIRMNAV", "assay": "[3H]5-HT release from rat brain synaptosomes", "format": "biochemical", "parameters": "from tissue; synaptosomes for uptake and release", "experimental": "(§1) Test compounds and synaptosomes were prepared as described for uptake inhibition assays. Synaptosomes treated with [^3H]5-HT, [^3H]DA or [^3H]NE were loaded onto filter chambers containing GF/C filters and placed in a superfusion system. Oxygenated Krebs buffer was perfused through the chambers at a rate of 1.5 mL/minute at 35° C. using either an 8-channel or a 12-channel peristaltic pump. Trapped air bubbles were removed from the filters prior to collecting fractions to ensure an even flow over the synaptosomal bed. After a superfusion period of 45 minutes, 2 basal fractions were collected followed by 6 fractions following the addition of the test drug. […] Scintillation cocktail was added, and the filters counted to determine residual radioactivity. Drug-evoked release of neurotransmitter was calculated by subtracting the average of the two basal fractions (collected prior to the drug addition), from the four fractions collected in the presence of drug. The drug-evoked release was then expressed as a percentage of the basal release. Potassium-evoked release was calculated by subtracting the average of two fractions collected prior to the addition of high KCl buffer from that in the two fractions following addition of high KCl buffer. Potassium-stimulated release was calculated as a percentage of basal release. […]"}, "NET [12]": {"molecular_target": "T5, NET (Rattus norvegicus, UniProt Q63380)", "T5 sequence (Q63380 1-617)": "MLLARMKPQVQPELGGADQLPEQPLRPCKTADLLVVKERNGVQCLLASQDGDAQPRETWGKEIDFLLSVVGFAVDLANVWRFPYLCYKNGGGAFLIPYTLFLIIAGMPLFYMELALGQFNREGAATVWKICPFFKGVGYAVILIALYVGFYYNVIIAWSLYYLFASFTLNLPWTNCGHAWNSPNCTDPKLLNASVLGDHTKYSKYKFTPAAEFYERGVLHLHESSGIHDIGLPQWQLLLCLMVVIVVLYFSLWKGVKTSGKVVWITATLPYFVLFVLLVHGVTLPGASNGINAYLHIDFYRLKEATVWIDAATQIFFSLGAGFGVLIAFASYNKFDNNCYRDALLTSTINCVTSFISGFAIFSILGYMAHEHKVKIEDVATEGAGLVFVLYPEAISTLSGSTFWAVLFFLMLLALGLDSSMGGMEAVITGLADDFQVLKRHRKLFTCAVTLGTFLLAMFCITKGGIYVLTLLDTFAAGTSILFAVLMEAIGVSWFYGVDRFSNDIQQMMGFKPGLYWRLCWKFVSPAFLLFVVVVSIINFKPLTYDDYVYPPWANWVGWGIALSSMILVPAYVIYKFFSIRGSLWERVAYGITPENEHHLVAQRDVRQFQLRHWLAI", "assay": "[3H]NE release from rat brain synaptosomes", "format": "biochemical", "parameters": "from tissue; synaptosomes for uptake and release", "experimental": "as §1"}, "DAT [13]": {"molecular_target": "T6, DAT (Rattus norvegicus, UniProt P23977)", "T6 sequence (P23977 whole entry)": "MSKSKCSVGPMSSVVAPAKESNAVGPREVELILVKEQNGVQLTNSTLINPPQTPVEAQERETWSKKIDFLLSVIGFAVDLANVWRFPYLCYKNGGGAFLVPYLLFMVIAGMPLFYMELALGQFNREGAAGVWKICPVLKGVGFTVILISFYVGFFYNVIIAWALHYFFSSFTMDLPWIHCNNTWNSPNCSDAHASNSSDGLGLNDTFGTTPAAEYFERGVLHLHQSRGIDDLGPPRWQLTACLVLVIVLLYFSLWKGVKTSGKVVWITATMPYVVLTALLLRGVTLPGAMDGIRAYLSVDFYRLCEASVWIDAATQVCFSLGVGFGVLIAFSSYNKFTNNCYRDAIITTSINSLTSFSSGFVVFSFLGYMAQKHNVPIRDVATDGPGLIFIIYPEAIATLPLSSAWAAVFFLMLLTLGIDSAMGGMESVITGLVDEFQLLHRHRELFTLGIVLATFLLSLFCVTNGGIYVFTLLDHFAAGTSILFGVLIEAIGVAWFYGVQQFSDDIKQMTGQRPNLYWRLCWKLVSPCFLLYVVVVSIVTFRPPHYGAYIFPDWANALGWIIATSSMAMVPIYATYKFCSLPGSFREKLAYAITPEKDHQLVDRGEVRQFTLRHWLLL", "assay": "[3H]DA release from rat brain synaptosomes", "format": "biochemical", "parameters": "from tissue; synaptosomes for uptake and release", "experimental": "as §1"}, "NET [14]": {"molecular_target": "T5, NET", "assay": "[3H]NE uptake inhibition in rat brain synaptosomes"}, "DAT [15]": {"molecular_target": "T6, DAT", "assay": "[3H]DA uptake inhibition in rat brain synaptosomes"}, "SERT [16]": {"molecular_target": "T4, SERT", "assay": "[3H]5-HT uptake inhibition in rat brain synaptosomes"}}, "note": "Read-outs that look alike come from different tables or passages of the source.", "data": [{"compound": "CNC(C)Cc1ccc2c(c1)OCO2", "note": "(racemic) [MDMA, 3,4-Methylenedioxymethamphetamine]", "values": [{"measurement": "Agonist % activity", "setting": "5HT2A receptor", "value": 27.5, "unit": "%"}, {"measurement": "Agonist % activity", "setting": "5HT2C receptor [1]", "value": 28.0, "unit": "%"}, {"measurement": "Antagonist % inhibition", "setting": "5HT2C receptor [2]", "value": 52.2, "unit": "%"}, {"measurement": "Times greater affinity for the 5HT2B receptor compared with methylone", "setting": "[3]", "value": 7.5, "unit": "times"}, {"measurement": "Additional genes significantly regulated by MDMA only", "setting": "[4]; amygdala", "value": 1313, "unit": "genes"}, {"measurement": "Genes downregulated by MDMA only", "setting": "[4]; amygdala", "value": 774, "unit": "genes"}, {"measurement": "Genes regulated by MDMA that are also regulated by methylone", "setting": "[4]; amygdala", "value": 7, "unit": "%"}, {"measurement": "Genes upregulated by MDMA only", "setting": "[4]; amygdala", "value": 539, "unit": "genes"}, {"measurement": "Genes regulated by both treatments", "setting": "[4]; frontal cortex", "value": 154, "unit": "genes"}, {"measurement": "More genes regulated than methylone", "setting": "[4]; frontal cortex", "value": "~72", "unit": "%"}, {"measurement": "Genes significantly regulated", "setting": "[4]; frontal cortex, 10 mg/kg IP (Example 27)", "value": 825, "unit": "genes"}, {"measurement": "MBP in basolateral and central nuclei of the amygdala vs. vehicle", "setting": "[5]", "value": "significant reduction in MBP"}, {"measurement": "Reduction in immobility in the FST", "setting": "[6]; 5 mg/kg, Flinders Sensitive Line rats", "value": 45, "unit": "%"}, {"measurement": "Reduction in immobility in the FST", "setting": "[6]; 5 mg/kg, Sprague Dawley rats (Majumder 2011)", "value": 45, "unit": "%"}, {"measurement": "Reduction in immobility in the FST", "setting": "[6]; 10 mg/kg, Flinders Sensitive Line rats", "value": 93, "unit": "%"}, {"measurement": "Reduction in immobility in the FST", "setting": "[6]; 10 mg/kg, Sprague Dawley rats (Majumder 2011)", "value": 78, "unit": "%"}, {"measurement": "Reduced freezing vs. saline (extinction recall)", "setting": "[7]", "value": 35, "unit": "%"}, {"measurement": "Ki", "setting": "[8]", "value": 500, "unit": "nM"}, {"measurement": "half-life", "setting": "[9]", "value": "5 to 7", "unit": "h"}, {"measurement": "Blood concentrations in deaths attributable to MDMA alone", "setting": "[10]", "value": "478 to 53900", "unit": "ng/mL"}, {"measurement": "EC50", "setting": "SERT [11]", "value": 160, "unit": "nM"}, {"measurement": "EC50", "setting": "NET [12]", "value": 490, "unit": "nM"}, {"measurement": "EC50", "setting": "DAT [13]", "value": 1420, "unit": "nM"}, {"measurement": "IC50", "setting": "NET [14]", "value": 120, "unit": "nM"}, {"measurement": "IC50", "setting": "DAT [15]", "value": 2500, "unit": "nM"}, {"measurement": "IC50", "setting": "SERT [16]", "value": 1800, "unit": "nM"}]}]}
